Test results reported in ChEMBL document CHEMBL4680302, “Biologic-like In Vivo Efficacy with Small Molecule Inhibitors of TNFα Identified Using Scaffold Hopping and Structure-Based Drug Design Approaches” (J Med Chem, 2020).

What was measured:
Tumor necrosis factor [1] = biological target: T1, Tumor necrosis factor (Homo sapiens, UniProt P01375); experiment: Displacement of fluorescent labeled probe from human recombinant His-tagged TNFalpha (77 to 233 residues) expressed in Escherichia coli preincubated for 1 hr followed by fluorogenic probe addition and measured after 3 hrs by HTRF assay
T1 sequence (P01375 whole entry, the tested form may be a part): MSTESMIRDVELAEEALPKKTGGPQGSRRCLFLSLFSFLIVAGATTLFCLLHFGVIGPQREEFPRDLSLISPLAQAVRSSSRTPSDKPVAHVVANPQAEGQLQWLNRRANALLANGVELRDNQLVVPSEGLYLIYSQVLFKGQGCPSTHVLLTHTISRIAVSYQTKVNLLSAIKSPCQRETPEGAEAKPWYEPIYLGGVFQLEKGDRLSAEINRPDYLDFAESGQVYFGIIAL

[2] = Metabolic stability in human liver microsomes assessed as parent compound remaining after 10 mins; format: ADME, Microsome; details: read-out: Stabilty
[3] = Metabolic stability in mouse liver microsomes assessed as parent compound remaining after 10 mins; format: ADME, Microsome; details: read-out: Stabilty
Tumor necrosis factor [4] = biological target: T1, Tumor necrosis factor; experiment: Inhibition of exogenous human TNFalpha in HEK-Blue-CD40L cells assessed as reduction in TNF-alpha-induced NFkappaB activation incubated for 18 hrs by quanti-blue based SEAP assay; format: cell-based
Cytochrome P450 2C19 = Cytochrome P450 2C19 (Homo sapiens, UniProt P33261); experiment: Inhibition of recombinant CYP2C19 (unknown origin); format: ADME
Sequence of Cytochrome P450 2C19 (P33261 whole entry): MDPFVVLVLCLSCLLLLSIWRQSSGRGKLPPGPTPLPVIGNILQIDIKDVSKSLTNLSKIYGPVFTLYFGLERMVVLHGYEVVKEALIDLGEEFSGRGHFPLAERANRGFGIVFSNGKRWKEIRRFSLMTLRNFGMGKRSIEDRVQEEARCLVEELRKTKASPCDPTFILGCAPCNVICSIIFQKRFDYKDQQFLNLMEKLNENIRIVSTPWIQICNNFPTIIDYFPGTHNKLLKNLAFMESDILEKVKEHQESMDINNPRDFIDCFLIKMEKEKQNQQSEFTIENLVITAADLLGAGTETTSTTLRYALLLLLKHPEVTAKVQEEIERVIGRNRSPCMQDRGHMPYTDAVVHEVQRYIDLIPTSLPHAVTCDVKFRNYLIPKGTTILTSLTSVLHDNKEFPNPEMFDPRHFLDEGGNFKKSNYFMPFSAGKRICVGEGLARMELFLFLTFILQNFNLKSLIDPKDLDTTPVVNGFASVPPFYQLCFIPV

Cytochrome P450 2C9 = Cytochrome P450 2C9 (Homo sapiens, UniProt P11712); experiment: Inhibition of recombinant CYP2C9 (unknown origin); format: ADME
Sequence of Cytochrome P450 2C9 (P11712 whole entry): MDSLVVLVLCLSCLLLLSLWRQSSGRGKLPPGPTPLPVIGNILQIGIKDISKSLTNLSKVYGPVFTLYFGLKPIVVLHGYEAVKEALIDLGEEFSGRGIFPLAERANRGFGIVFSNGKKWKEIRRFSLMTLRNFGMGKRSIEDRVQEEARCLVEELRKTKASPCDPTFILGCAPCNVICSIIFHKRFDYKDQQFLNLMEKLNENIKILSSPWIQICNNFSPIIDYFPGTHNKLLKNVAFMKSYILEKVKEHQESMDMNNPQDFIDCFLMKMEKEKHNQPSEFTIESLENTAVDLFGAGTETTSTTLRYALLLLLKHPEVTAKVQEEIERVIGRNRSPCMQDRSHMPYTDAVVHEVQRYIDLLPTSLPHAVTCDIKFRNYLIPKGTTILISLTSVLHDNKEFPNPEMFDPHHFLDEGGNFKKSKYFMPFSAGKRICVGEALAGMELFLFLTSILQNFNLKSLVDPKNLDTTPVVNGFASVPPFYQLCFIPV

Structure (SMILES)	remaining at 10 min [2]	remaining at 10 min [3]	IC50 (Cytochrome P450 2C19)	IC50 (Cytochrome P450 2C9)	IC50 (Tumor necrosis factor [1])	IC50 (Tumor necrosis factor [4])
CC(Nc1c(Cl)cnc2cnc(-c3cnc(C(C)(C)O)nc3)cc12)c1ccccc1F (racemic)					400 nM	
C[C@@H](Nc1c(Cl)cnc2ccc(-c3ccc(S(C)(=O)=O)nc3)cc12)c1ccccc1F	33%	31%			15 nM	909 nM
C[C@@H](Nc1c(Cl)cnc2ccc(-c3cnc(N4CCN(CC(=O)O)CC4)nc3)cc12)c1ccccc1F	86%	57%				115 nM
CC(Nc1c(Cl)cnc2ccc(-c3cnc(C(C)(C)O)nc3)nc12)c1ccccc1F (single isomer, unassigned; enantiomer 1)					39 nM	753 nM
CC(Nc1c(Cl)cnc2ncc(-c3cnc(C(C)(C)O)nc3)cc12)c1ccccc1F (racemic)					207 nM	
CC(C)(O)c1ncc(-c2ccc3ncc(Cl)c(NC(C)(C)c4ccccc4)c3c2)cn1	76%	47%			> 10000 nM	> 25000 nM
CC(Nc1c(Cl)cnc2ccc(-c3cnc(C(C)(C)O)nc3)nc12)c1ccccc1F (racemic)					24 nM	
CC(Nc1c(Cl)cnc2cc(F)c(-c3cnc(C(C)(C)O)nc3)cc12)c1ccccc1F (racemic)	70%	28%			48 nM	64 nM
Cc1ccc(C)c(Nc2ccnc3ccc(-c4ccc(C#N)nc4)cc23)c1					428 nM	> 25000 nM
CC(Nc1c(Cl)cnc2ccc(-c3cnc(C(C)(C)O)nc3)cc12)c1cccc(F)c1 (racemic)	47%	32%			31 nM	1040 nM
CC(Nc1c(Cl)cnc2c(Cl)cc(-c3cnc(C(C)(C)O)nc3)cc12)c1ccccc1F (racemic)	40%	7%			106 nM	> 25000 nM
C[C@@H](Nc1c(Cl)cnc2ccc(-c3cnc(C(C)(C)O)nc3)cc12)c1cc(N2CCCC2)ccc1F	30%	18%			94 nM	331 nM
Cc1ccc(C)c(Nc2c(Cl)cnc3ccc(Br)cc23)c1					36 nM	840 nM
CC(Nc1c(Cl)cnc2cc(Cl)c(-c3cnc(C(C)(C)O)nc3)cc12)c1ccccc1F (racemic)					54 nM	178 nM
C[C@H](Nc1c(Cl)cnc2ccc(-c3cnc(C(C)(C)O)nc3)cc12)c1ccccc1	32%	26%			943 nM	> 25000 nM
C[C@@H](Nc1c(Cl)cnc2ccc(-c3cnc(C(C)(C)O)nc3)cc12)c1cc(C#N)ccc1F	79%	23%			48 nM	49 nM
C[C@@H](Nc1c(Cl)cnc2ccc(-c3cnc(C(C)(C)O)nc3)cc12)c1ccccc1F	59%	54%			17 nM	110 nM
CC(C)C(Nc1c(Cl)cnc2ccc(-c3cnc(C(C)(C)O)nc3)cc12)c1ccccc1F (racemic)	69%	13%			57 nM	826 nM
C[C@@H](Nc1c(Cl)cnc2ccc(-c3cnc(C(C)(C)O)nc3)cc12)c1ccccc1	45%	50%			14 nM	496 nM
C[C@@H](Nc1c(Cl)cnc2ccc(-c3cnc(N4CCS(=O)(=O)CC4)nc3)cc12)c1ccccc1F	57%	34%			25 nM	152 nM
CC(Nc1c(Cl)cnc2ccc(-c3cnc(C(C)(C)O)nc3)c(Cl)c12)c1ccccc1F (racemic)					116 nM	365 nM
Cc1ccc(C)c(Nc2c(C)cnc3ccc(-c4cnc(C(C)(C)O)nc4)cc23)c1						107 nM

Now from value to compound, other results behind:

remaining at 10 min [2]	remaining at 10 min [3]	IC50 (Cytochrome P450 2C19)	IC50 (Cytochrome P450 2C9)	Structure (SMILES)	IC50 (Tumor necrosis factor [1])	IC50 (Tumor necrosis factor [4])
32%	28%			CCOc1ncc(-c2ccc3ncc(Cl)c(N[C@H](C)c4ccccc4F)c3c2)cn1	15 nM	587 nM
33%	30%			Cc1ccc(C)c(Nc2c(Cl)cnc3ccc(-c4ccc(C#N)nc4)cc23)c1	35 nM	73 nM
51%	34%			CC(Nc1c(Cl)cnc2ccc(-c3cnc(C(C)(C)O)nc3)cc12)c1ccccc1F (racemic)	27 nM	190 nM
70%	45%			C[C@@H](Nc1c(Cl)cnc2ccc(-c3cnc(C(C)(C)O)nc3)cc12)c1cc(N)ccc1F	37 nM	41 nM
81%	49%			CC(Nc1c(Cl)cnc2ccc(-c3cnc(C(C)(C)O)nc3)cc12)c1ccccc1C(F)(F)F (racemic)	51 nM	407 nM
73%	24%			C[C@@H](Nc1c(Cl)cnc2ccc(-c3ccc(C(C)(C)O)cc3)cc12)c1ccccc1F	47 nM	65 nM
84%	41%	30 nM		CC(Nc1c(Cl)cnc2ccc(-c3cnc(C(C)(C)O)nc3)nc12)c1ccccc1F (single isomer, unassigned; enantiomer 2)	38 nM	473 nM
57%	61%			CC(C)(O)c1ncc(-c2ccc3ncc(Cl)c(NCc4ccccc4)c3c2)cn1	82 nM	> 25000 nM
50%	21%			CC(Nc1c(Cl)cnc2ccc(-c3cnc(C(C)(C)O)nc3)cc12)c1ccccn1 (racemic)	264 nM	> 25000 nM
57%	38%			CCC(Nc1c(Cl)cnc2ccc(-c3cnc(C(C)(C)O)nc3)cc12)c1ccccc1F (racemic)	35 nM	368 nM
67%	25%			CC(Nc1c(Cl)cnc2c(F)cc(-c3cnc(C(C)(C)O)nc3)cc12)c1ccccc1F (racemic)	46 nM	224 nM
35%	24%	30 nM	600 nM	Cc1ccc(C)c(Nc2c(Cl)cnc3ccc(-c4cnc(C(C)(C)O)nc4)cc23)c1		105 nM
		2100 nM	2800 nM	Cc1ccc(C)c(Nc2c(Cl)c(C)nc3ccc(-c4cnc(C(C)(C)O)nc4)cc23)c1	51 nM	196 nM
46%	51%			C[C@@H](Nc1ccnc2ccc(-c3cnc(C(C)(C)O)nc3)cc12)c1cc(N2CCCC2)ccc1F	15100 nM	> 25000 nM
42%	38%			CC(Nc1c(Cl)cnc2ccc(-c3cnc(C(C)(C)O)nc3)cc12)c1ccc(F)cc1 (racemic)	62 nM	840 nM
